In ChEMBL document CHEMBL1909046, “DrugMatrix in vitro pharmacology data”:

Columns and labels:
[1] = target: Delta-type opioid receptor (Homo sapiens, UniProt P41143); type: cell membranes, HEK293, Membrane; conditions: hek293; also: in other assays of this panel Not Active means under 50% inhibition at 10 µM
[2] = target: Mu-type opioid receptor (Homo sapiens, UniProt P35372); assay: DRUGMATRIX: Opiate mu (OP3, MOP) radioligand binding (ligand: [3H] Diprenorphine); type: cell membranes, CHO-K1, Membrane; conditions: cho-k1; Not Active = under 50% inhibition at 10 µM
[3] = target: T1, Alpha-1D adrenergic receptor (Homo sapiens, UniProt P25100); type: cell membranes, HEK293, Membrane; conditions: hek293; also: in other assays of this panel Not Active means under 50% inhibition at 10 µM
T1 sequence (P25100 whole entry): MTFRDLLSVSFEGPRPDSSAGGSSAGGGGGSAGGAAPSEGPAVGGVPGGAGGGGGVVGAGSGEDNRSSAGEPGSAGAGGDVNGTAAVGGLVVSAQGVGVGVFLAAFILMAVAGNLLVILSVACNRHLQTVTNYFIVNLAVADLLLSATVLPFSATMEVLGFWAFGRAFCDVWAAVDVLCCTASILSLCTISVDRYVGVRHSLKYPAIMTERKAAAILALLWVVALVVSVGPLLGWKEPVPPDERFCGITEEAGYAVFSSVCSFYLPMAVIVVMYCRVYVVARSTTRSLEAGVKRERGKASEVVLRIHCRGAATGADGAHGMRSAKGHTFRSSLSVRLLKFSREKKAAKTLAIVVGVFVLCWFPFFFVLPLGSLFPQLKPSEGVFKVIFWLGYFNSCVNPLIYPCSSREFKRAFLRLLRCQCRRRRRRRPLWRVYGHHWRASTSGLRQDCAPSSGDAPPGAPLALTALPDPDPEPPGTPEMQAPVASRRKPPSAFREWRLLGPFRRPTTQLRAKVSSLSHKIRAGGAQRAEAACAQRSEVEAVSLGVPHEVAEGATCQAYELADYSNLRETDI

[4] = DRUGMATRIX: GABAA, Muscimol, Central radioligand binding (ligand: [3H] Muscimol); type: cell membranes, Rattus norvegicus, Wistar, Brain, Membrane; conditions: Not Active = under 50% inhibition at 10 µM
[5] = target: Voltage-gated inwardly rectifying potassium channel KCNH2 (Homo sapiens, UniProt Q12809); conditions: hek293; also: in other assays of this panel Not Active means under 50% inhibition at 10 µM
[6] = target: T2, Neutrophil elastase (Homo sapiens, UniProt P08246); type: tissue-based;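 also: inhibition of neutrophil elastase enzyme activity, measured with a p-nitroanilide-linked peptide substrate; in other assays of this panel Not Active means under 50% inhibition at 10 µM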
T2 sequence (P08246 whole entry): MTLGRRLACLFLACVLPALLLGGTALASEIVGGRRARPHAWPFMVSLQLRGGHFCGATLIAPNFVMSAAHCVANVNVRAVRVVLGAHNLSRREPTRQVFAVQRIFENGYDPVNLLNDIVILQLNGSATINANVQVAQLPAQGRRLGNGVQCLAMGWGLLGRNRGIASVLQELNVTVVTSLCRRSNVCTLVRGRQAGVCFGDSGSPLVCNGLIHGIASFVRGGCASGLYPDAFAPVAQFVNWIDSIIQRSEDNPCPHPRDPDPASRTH

[7] = DRUGMATRIX: Leukotriene, BLT (LTB4) radioligand binding (ligand: [3H]LTB4); type: cell membranes, Membrane; conditions: u-937; Not Active = under 50% inhibition at 10 µM
[8] = target: T3, Adenosine receptor A1 (Homo sapiens, UniProt P30542); type: cell membranes, Membrane; conditions: cho
T3 sequence (P30542 whole entry): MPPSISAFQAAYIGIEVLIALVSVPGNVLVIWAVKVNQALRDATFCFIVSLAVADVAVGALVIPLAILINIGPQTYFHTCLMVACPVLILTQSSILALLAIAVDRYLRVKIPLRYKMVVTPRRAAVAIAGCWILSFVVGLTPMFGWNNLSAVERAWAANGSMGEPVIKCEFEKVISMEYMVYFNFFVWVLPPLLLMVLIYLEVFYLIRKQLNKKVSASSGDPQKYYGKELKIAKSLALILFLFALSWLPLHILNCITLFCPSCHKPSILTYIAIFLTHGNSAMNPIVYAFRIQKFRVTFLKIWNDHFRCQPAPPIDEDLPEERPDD

[9] = target: Cytochrome P450 2E1 (Homo sapiens, UniProt P05181); conditions: bti-tn-5b1-4; also: in other assays of this panel Not Active means under 50% inhibition at 10 µM
[10] = target: T4, Muscarinic acetylcholine receptor M5 (Homo sapiens, UniProt P08912); type: cell membranes, CHO-K1, Membrane; conditions: cho-k1; also: in other assays of this panel Not Active means under 50% inhibition at 10 µM
T4 sequence (P08912 whole entry): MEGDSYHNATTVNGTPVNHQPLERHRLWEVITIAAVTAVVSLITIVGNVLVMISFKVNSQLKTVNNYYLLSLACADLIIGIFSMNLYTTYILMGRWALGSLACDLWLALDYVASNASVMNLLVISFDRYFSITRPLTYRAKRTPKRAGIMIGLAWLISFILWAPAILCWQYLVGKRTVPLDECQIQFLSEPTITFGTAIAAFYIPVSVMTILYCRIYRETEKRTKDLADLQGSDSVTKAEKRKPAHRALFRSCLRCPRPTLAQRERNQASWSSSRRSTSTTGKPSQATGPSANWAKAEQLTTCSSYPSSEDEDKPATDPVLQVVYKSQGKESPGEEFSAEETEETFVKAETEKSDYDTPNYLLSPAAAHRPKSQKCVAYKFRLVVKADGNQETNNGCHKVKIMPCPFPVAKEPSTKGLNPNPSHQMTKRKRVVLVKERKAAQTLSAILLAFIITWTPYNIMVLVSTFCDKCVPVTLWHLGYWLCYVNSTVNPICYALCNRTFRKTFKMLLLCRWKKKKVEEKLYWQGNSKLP

Chain of Cytochrome P450 2E1 (P05181 whole entry): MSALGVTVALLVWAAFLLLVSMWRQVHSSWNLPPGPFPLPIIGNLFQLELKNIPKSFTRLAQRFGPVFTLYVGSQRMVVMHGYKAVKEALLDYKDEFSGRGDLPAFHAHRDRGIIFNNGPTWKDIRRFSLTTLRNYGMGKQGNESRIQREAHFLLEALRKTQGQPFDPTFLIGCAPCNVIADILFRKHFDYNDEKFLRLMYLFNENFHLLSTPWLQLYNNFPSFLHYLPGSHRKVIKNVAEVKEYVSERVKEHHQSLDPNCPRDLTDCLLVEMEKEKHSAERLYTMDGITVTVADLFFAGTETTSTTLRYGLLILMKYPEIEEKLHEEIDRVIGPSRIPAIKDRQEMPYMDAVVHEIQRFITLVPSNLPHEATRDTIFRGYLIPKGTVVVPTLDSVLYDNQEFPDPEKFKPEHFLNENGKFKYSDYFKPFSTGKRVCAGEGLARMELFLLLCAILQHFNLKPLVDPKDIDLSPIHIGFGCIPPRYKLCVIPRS
Chain of Mu-type opioid receptor (P35372 whole entry): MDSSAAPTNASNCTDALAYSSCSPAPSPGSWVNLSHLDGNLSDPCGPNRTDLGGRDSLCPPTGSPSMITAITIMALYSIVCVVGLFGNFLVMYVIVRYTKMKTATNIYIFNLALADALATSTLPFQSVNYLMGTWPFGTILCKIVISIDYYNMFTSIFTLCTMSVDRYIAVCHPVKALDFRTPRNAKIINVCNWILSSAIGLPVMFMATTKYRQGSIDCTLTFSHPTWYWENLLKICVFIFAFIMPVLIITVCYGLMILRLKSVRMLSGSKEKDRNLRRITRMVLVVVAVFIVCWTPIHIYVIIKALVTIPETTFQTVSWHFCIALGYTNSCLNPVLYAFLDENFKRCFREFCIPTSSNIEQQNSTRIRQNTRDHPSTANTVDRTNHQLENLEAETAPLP
Chain of Voltage-gated inwardly rectifying potassium channel KCNH2 (Q12809 whole entry): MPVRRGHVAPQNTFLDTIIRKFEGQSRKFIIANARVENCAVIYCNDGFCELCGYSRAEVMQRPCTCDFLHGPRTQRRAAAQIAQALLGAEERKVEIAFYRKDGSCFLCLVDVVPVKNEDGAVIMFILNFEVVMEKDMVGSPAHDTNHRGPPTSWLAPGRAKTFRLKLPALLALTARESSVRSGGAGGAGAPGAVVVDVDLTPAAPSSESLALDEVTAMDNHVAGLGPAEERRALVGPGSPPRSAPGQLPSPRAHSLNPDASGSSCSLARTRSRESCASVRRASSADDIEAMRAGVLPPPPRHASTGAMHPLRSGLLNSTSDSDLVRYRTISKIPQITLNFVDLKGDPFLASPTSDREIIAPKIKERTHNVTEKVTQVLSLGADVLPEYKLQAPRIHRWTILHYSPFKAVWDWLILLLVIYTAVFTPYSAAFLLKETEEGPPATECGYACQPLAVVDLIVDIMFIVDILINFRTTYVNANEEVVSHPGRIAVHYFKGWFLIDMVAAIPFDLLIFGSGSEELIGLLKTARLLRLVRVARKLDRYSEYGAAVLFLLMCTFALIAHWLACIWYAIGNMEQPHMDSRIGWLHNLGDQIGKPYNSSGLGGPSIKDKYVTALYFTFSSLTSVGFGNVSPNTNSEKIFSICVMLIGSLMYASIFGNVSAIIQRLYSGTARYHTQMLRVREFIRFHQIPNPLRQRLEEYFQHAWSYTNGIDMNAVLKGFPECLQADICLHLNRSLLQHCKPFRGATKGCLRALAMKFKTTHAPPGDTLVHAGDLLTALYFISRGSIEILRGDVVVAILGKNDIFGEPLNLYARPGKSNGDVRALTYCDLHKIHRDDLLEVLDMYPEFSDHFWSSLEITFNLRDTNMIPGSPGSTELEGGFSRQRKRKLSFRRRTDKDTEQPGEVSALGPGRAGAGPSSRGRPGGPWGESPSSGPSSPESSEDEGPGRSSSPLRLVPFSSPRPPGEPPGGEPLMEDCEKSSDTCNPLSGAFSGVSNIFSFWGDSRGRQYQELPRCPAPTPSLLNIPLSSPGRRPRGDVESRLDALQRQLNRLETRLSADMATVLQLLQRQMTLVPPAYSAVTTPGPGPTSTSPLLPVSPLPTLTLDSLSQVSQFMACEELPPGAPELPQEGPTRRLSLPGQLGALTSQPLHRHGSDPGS
Chain of Delta-type opioid receptor (P41143 whole entry): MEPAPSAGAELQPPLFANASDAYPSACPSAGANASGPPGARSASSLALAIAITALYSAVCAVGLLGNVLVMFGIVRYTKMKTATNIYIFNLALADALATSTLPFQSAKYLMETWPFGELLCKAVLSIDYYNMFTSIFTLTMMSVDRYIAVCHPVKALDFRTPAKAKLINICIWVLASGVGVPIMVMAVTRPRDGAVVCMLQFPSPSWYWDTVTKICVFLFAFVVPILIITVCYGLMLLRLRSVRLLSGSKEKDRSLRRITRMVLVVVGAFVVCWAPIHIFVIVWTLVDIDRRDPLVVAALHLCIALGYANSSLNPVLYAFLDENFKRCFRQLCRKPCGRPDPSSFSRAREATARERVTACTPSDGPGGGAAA

CNC(=C[N+](=O)[O-])NCCSCc1ccc(CN(C)C)o1 [RANITIDINE]
Not Active: IC50 [1] | IC50 [2] | IC50 [3] | IC50 [4] | Ki [4] | IC50 [5] | Ki [5] | IC50 [6] | IC50 [7] | Ki [7] | IC50 [8] | IC50 [9] | Ki [9] | IC50 [10]

CO[C@H]1/C=C/O[C@@]2(C)Oc3c(C)c(O)c4c(c3C2=O)C2=NC3(CCN(CC(C)C)CC3)NC2=C(NC(=O)/C(C)=C\C=C\[C@H](C)[C@H](O)[C@@H](C)[C@@H](O)[C@@H](C)[C@H](OC(C)=O)[C@@H]1C)C4=O [RIFABUTIN]
Not Active: IC50 [1] | IC50 [2] | IC50 [3] | IC50 [4] | Ki [4] | IC50 [5] | Ki [5] | IC50 [6] | IC50 [7] | Ki [7] | IC50 [8] | IC50 [9] | Ki [9] | IC50 [10]

CC(C)CC(N(C)C)C1(c2ccc(Cl)cc2)CCC1 (stereo unspecified) [SIBUTRAMINE]
Not Active: IC50 [1] | IC50 [2] | IC50 [3] | IC50 [4] | Ki [4] | IC50 [5] | Ki [5] | IC50 [6] | IC50 [7] | Ki [7] | IC50 [8] | IC50 [9] | Ki [9] | IC50 [10]

[H]/N=C(/N)N[C@H]1[C@H](O)[C@@H](O)[C@H](O[C@@H]2O[C@@H](C)[C@](O)(C=O)[C@H]2O[C@@H]2O[C@@H](CO)[C@H](O)[C@@H](O)[C@@H]2NC)[C@@H](N/C(N)=N\[H])[C@@H]1O [STREPTOMYCIN]
Not Active: IC50 [1] | IC50 [2] | IC50 [3] | IC50 [4] | Ki [4] | IC50 [5] | Ki [5] | IC50 [6] | IC50 [7] | Ki [7] | IC50 [8] | IC50 [9] | Ki [9] | IC50 [10]

COc1cc(NS(=O)(=O)c2ccc(N)cc2)nc(OC)n1 [SULFADIMETHOXINE]
Not Active: IC50 [1] | IC50 [2] | IC50 [3] | IC50 [4] | Ki [4] | IC50 [5] | Ki [5] | IC50 [6] | IC50 [7] | Ki [7] | IC50 [8] | IC50 [9] | Ki [9] | IC50 [10]

Cc1cc(C)nc(NS(=O)(=O)c2ccc(N)cc2)n1 [SULFAMETHAZINE]
Not Active: IC50 [1] | IC50 [2] | IC50 [3] | IC50 [4] | Ki [4] | IC50 [5] | Ki [5] | IC50 [6] | IC50 [7] | Ki [7] | IC50 [8] | IC50 [9] | Ki [9] | IC50 [10]

C[C@]1(Cn2ccnn2)[C@H](C(=O)O)N2C(=O)C[C@H]2S1(=O)=O [TAZOBACTAM]
Not Active: IC50 [1] | IC50 [2] | IC50 [3] | IC50 [4] | Ki [4] | IC50 [5] | Ki [5] | IC50 [6] | IC50 [7] | Ki [7] | IC50 [8] | IC50 [9] | Ki [9] | IC50 [10]

CN1C(C(=O)Nc2ccccn2)=C(O)c2sccc2S1(=O)=O [TENOXICAM]
Not Active: IC50 [1] | IC50 [2] | IC50 [3] | IC50 [4] | Ki [4] | IC50 [5] | Ki [5] | IC50 [6] | IC50 [7] | Ki [7] | IC50 [8] | IC50 [9] | Ki [9] | IC50 [10]

O=C1CCC(N2C(=O)c3ccccc3C2=O)C(=O)N1 (stereo unspecified) [THALIDOMIDE]
Not Active: IC50 [1] | IC50 [2] | IC50 [3] | IC50 [4] | Ki [4] | IC50 [5] | Ki [5] | IC50 [6] | IC50 [7] | Ki [7] | IC50 [8] | IC50 [9] | Ki [9] | IC50 [10]

Cc1cccc(Nc2ccncc2S(=O)(=O)NC(=O)NC(C)C)c1 [TORSEMIDE]
Not Active: IC50 [1] | IC50 [2] | IC50 [3] | IC50 [4] | Ki [4] | IC50 [5] | Ki [5] | IC50 [6] | IC50 [7] | Ki [7] | IC50 [8] | IC50 [9] | Ki [9] | IC50 [10]

CC(C)C[C@H](NC(=O)[C@@H](O)[C@H](N)Cc1ccccc1)C(=O)O [UBENIMEX]
Not Active: IC50 [1] | IC50 [2] | IC50 [3] | IC50 [4] | Ki [4] | IC50 [5] | Ki [5] | IC50 [6] | IC50 [7] | Ki [7] | IC50 [8] | IC50 [9] | Ki [9] | IC50 [10]

Cc1onc(-c2ccccc2)c1-c1ccc(S(N)(=O)=O)cc1 [VALDECOXIB]
Not Active: IC50 [1] | IC50 [2] | IC50 [3] | IC50 [4] | Ki [4] | IC50 [5] | Ki [5] | IC50 [6] | IC50 [7] | Ki [7] | IC50 [8] | IC50 [9] | Ki [9] | IC50 [10]

CC[C@]1(O)C[C@@H]2CN(CCc3c([nH]c4ccccc34)[C@@](C(=O)OC)(c3cc4c(cc3OC)N(C)[C@H]3[C@@](O)(C(=O)OC)[C@H](OC(C)=O)[C@]5(CC)C=CCN6CC[C@]43[C@@H]65)C2)C1 [VINBLASTINE]
Not Active: IC50 [1] | IC50 [2] | IC50 [3] | IC50 [4] | Ki [4] | IC50 [5] | Ki [5] | IC50 [6] | IC50 [7] | Ki [7] | IC50 [8] | IC50 [9] | Ki [9] | IC50 [10]

[Cl-].[Cl-].[Zn+2] [ZINC CHLORIDE]
Not Active: IC50 [1] | IC50 [2] | IC50 [3] | IC50 [4] | Ki [4] | IC50 [5] | Ki [5] | IC50 [6] | IC50 [7] | Ki [7] | IC50 [8] | IC50 [9] | Ki [9] | IC50 [10]
